Calls of active or inactive are those of the source.
What was measured:
[1] = Vero E6 cell cytotoxicity, dose response, cytotoxicity control for non-replicating M. tuberculosis project, secondary assay (AID 492998); format: functional, VeroE6; conditions: Vero C1008
[2] = viability of PTEN-deleted HCT116 cells – cell-based, HCT116 PTEN knockout, dose response (AID 1047); format: functional;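 further: HCT116 colon tumor cells with PTEN knocked out; cells exposed to compound for 60 hours before readout; potency for loss of cell viability measured by luminescence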
cells [3] = format: functional
[4] = HepG2 cell cytotoxicity, dose response, cytotoxicity control for non-replicating M. tuberculosis project (AID 489018); format: functional; conditions: Mycobacterium tuberculosis
[5] = THP-1 cell cytotoxicity, dose response, cytotoxicity control for non-replicating M. tuberculosis project (AID 489025); format: functional
[6] = viability of HCT116 lacking mutant beta-catenin – cell-based, human colon tumor, dose response (AID 1045); format: functional;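 further: HCT116 colon tumor cells with beta catenin knocked out; cells exposed to compound for 60 hours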
cells [7] = format: functional, cell-based
cells [8] = format: functional, cell-based; remark: listed apart in the source
Cytochrome P450 2C9 = Cytochrome P450 2C9 (Homo sapiens, UniProt P11712)
Cytochrome P450 2C19 = Cytochrome P450 2C19 (Homo sapiens, UniProt P33261); assay: Cytochrome panel assay with activity outcomes. Panel member name: p450-cyp2c19 Compounds with AC50 equal or less than 10 uM are considered active; format: functional; conditions: read-out: AC50
Cytochrome P450 3A4 = Cytochrome P450 3A4 (Homo sapiens, UniProt P08684);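 further: CYP3A4 tested as one member of a cytochrome P450 panel screen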
[9] = target: T1, Endoribonuclease toxin MazF (Escherichia coli K-12, UniProt P0AE70); assay: substrate-only fluorescence increase artefacts – biochemical, single-stranded RNase substrate, counter-screen for MazEF activator project, dose response (AID 588502); format: functional
T1 sequence (P0AE70 whole entry): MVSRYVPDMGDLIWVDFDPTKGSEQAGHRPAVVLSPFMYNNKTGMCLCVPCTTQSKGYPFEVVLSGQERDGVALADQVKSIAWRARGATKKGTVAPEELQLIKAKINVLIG

[10] = target: T1, Endoribonuclease toxin MazF; assay: activation of MazEF endoribonuclease cleavage – biochemical, fluorescence, single-stranded RNA substrate, uHTS hits, dose response (AID 588481); format: functional
[11] = Luminescence Cell-Based Dose Response HTS to Identify Inhibitors of 5'UTR Stem-Loop Driven Prion Protein mRNA Translation in H4 Neuroglioblastoma Cells. [Related pubchem assays: 1827 (Project Summary), 1813 (Primary HTS)]; format: functional
[12] = alpha-synuclein stem-loop luciferase translation blockers – H4 neuroglioma cells, luminescence, confirmation (AID 1988); format: functional, cell-based
[13] = luciferase reporter signal suppression in cells – H4 neuroglioma cells, luminescence, dose response (AID 1990); format: functional, cell-based
[14] = system: Streptococcus sp. 'group A'; assay: Streptococcus pyogenes SK(-)GAS viability under kanamycin – luminescence, BacTiterGlo, confirmation, counter-screen for streptokinase expression inhibitor project, dose response (AID 1900); format: functional, organism-based
Vero = assay: cells; format: functional; conditions: Chlorocebus sabaeus
Streptococcus = assay: GAS UMAA2166 growth inhibition – luminescence, BacTiterGlo, counter-screen for streptokinase expression inhibitor project, dose response (AID 1915); format: functional, organism-based;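 further: potency for reduction of bacterial viability or growth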
[15] = NIH-3T3 fibroblast cytotoxicity, dose response, cytotoxicity control, cell-based, fluorescence, Alamar Blue, secondary assay (AID 2327); format: functional;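 further: NIH-3T3 mouse fibroblasts cultured with fluconazole at 8 µg/mL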
[16] = fluconazole-exposed Candida albicans growth modulators – fluorescence, retest, confirmation (AID 2467); format: functional, cell-based
Protein skinhead-1 = target: T2, Protein skinhead-1 (Caenorhabditis elegans, UniProt P34707); format: functional
T2 sequence (P34707 whole entry): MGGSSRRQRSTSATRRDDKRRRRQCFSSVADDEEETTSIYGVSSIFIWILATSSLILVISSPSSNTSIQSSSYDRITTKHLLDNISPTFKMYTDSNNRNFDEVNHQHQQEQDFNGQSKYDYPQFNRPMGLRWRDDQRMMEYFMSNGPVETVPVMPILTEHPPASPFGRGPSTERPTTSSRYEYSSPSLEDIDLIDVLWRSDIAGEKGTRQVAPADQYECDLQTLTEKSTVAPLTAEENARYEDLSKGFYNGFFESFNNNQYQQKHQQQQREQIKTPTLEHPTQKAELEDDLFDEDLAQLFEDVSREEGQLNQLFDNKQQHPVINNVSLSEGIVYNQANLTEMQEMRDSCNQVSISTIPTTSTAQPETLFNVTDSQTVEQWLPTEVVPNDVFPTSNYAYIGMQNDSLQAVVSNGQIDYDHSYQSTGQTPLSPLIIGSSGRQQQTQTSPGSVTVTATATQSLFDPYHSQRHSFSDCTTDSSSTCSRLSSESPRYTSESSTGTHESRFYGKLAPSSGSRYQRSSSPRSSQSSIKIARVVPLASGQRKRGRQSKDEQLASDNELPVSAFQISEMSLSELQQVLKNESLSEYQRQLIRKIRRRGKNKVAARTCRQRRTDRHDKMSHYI

Large T antigen = Large T antigen (Simian virus 40, UniProt P03070); format: functional, Betapolyomavirus macacae;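 further: Confirmatory-stage PubChem screen for compounds that inhibit SV40 T antigen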
[17] = target: FAD-linked sulfhydryl oxidase ALR (Homo sapiens, UniProt P55789); assay: ALR-catalysed DTT oxidation blockers – biochemical, H2O2 detection, luminescence, cherry-pick, dose response (AID 493248)
H9c2 = assay: cells; format: functional, cell-based; conditions: Rattus norvegicus, H9c2, Myocardium
[18] = Luminescence Cell-Based Dose Retest to Confirm Inhibitors of Cancer Stem Cells. [Related pubchem assays (depositor defined):AID2717, AID2721]; format: functional; conditions: Homo sapiens
Streptokinase A = target: T3, Streptokinase A (Streptococcus pyogenes serotype M1, UniProt P10520); assay: viability-normalized secreted streptokinase activity reduction – plasminogen activation absorbance, OD405, dose response (AID 1914); format: functional, Streptococcus pyogenes M1 GAS;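 further: secreted streptokinase activity via plasminogen activation per viability signal from cell pellet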
T3 sequence (P10520 whole entry): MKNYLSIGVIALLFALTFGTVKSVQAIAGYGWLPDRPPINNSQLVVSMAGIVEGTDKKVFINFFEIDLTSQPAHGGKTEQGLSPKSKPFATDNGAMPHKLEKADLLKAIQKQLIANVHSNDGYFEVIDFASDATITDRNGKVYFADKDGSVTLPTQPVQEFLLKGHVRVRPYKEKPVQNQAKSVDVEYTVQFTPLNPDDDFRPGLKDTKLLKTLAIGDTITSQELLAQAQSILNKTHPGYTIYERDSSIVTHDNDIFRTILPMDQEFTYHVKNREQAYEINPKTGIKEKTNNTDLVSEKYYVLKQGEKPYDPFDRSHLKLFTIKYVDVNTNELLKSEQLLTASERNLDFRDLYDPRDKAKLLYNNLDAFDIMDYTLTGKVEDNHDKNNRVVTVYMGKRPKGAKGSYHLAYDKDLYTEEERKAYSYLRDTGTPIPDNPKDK

Chain of Cytochrome P450 2C9 (P11712 whole entry): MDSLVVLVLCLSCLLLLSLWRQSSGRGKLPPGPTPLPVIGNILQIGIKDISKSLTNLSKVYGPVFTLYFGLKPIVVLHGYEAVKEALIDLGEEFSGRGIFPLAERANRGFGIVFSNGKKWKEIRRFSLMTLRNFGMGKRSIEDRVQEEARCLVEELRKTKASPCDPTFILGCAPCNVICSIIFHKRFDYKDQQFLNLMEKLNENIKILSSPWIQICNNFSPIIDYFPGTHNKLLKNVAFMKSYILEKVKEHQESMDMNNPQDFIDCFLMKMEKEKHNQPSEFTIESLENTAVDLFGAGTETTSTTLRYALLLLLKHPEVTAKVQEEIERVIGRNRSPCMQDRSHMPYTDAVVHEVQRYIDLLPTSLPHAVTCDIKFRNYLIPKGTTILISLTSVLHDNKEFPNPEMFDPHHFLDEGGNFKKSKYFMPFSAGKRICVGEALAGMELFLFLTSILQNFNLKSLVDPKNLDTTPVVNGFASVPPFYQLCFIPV
Chain of Cytochrome P450 2C19 (P33261 whole entry): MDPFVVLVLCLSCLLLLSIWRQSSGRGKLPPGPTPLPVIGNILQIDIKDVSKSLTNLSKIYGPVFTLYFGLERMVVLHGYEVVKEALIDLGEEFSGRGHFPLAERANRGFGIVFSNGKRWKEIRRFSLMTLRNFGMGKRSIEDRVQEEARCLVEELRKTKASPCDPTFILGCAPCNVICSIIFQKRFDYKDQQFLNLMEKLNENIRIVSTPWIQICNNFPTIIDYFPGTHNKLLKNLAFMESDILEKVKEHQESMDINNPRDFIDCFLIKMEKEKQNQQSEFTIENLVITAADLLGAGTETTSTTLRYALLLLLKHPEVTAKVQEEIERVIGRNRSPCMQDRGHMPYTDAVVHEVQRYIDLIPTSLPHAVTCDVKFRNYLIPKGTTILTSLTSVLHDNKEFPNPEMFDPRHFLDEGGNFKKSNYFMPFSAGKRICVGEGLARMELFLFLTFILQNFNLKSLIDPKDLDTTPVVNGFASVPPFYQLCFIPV
Chain of FAD-linked sulfhydryl oxidase ALR (P55789 whole entry): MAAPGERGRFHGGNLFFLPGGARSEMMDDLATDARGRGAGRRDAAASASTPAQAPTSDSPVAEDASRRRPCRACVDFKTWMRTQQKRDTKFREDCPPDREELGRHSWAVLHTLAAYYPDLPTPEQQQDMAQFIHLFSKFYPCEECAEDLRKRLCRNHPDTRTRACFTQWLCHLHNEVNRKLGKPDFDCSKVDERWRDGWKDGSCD
Chain of Large T antigen (P03070 whole entry): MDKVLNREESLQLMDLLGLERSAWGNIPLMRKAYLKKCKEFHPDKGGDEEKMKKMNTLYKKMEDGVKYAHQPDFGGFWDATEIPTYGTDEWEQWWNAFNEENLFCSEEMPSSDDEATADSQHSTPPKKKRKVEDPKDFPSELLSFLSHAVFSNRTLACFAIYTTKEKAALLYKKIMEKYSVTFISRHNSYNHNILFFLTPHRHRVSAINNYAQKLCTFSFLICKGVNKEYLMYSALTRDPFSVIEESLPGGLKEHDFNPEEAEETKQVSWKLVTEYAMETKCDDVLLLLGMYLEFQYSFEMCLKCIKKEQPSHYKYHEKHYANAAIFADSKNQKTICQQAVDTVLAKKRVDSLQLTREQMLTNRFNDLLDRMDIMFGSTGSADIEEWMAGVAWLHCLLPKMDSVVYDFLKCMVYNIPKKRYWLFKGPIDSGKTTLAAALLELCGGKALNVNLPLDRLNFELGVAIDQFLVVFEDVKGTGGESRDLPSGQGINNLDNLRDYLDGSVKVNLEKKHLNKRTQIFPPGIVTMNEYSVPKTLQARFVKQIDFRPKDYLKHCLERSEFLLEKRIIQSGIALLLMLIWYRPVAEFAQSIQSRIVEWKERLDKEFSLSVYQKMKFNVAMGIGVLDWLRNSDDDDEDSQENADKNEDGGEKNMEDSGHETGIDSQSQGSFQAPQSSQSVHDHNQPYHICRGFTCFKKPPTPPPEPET
Chain of Cytochrome P450 3A4 (P08684 whole entry): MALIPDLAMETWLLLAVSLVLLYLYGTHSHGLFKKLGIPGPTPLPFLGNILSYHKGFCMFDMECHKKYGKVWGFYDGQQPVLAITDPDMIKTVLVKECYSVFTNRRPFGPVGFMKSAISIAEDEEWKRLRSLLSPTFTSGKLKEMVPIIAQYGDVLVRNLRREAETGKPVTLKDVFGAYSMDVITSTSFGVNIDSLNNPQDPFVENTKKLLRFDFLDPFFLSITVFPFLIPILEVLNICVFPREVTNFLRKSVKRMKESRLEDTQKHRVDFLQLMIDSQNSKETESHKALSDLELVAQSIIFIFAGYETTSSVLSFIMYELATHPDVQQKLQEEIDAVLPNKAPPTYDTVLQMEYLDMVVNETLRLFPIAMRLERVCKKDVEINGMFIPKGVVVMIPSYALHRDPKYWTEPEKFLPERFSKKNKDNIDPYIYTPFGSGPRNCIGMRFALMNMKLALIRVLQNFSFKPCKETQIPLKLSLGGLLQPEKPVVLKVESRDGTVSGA

## CCOc1cc(CNCCO)cc(Br)c1OCc1ccc(Cl)cc1
[1]
  CC50: 12.7 µM (active)
[2]
  EC50: 7.29 µM (active)
Cells [3]
  IC50: 26.9 µM (active)
[4]
  CC50: 11 µM (active)
[5]
  CC50: 9.41 µM (active)
[6]
  EC50: 7.16 µM (active)

## O=C(Cc1ccc(S(=O)(=O)N2CCOCC2)s1)Nc1ccc(S(=O)(=O)N2CCCCC2)cc1
Cells [7]
  EC50: > 350 µM (not active)
Cells [8]
  EC50: > 350 µM (not active)

## CCCCn1nc2cc(C(=O)NCC3CC3)ccc2c1OCC
Cytochrome P450 2C9
  AC50: inconclusive
Cytochrome P450 2C19
  AC50: 14.1 µM (inconclusive)

## Cl.Fc1ccc(CCNCc2cccc(Cl)c2)cc1
Cytochrome P450 2C9
  AC50: inconclusive
Cytochrome P450 2C19
  AC50: 1 µM (inconclusive)
Cytochrome P450 3A4
  AC50: 12.6 µM (inconclusive)

## CC(=O)Nc1ccc2nc(NC(=O)COc3ccccc3C)sc2c1
Cells [7]
  EC50: > 350 µM (not active)
Cells [8]
  EC50: > 350 µM (not active)

## CCOc1ccc(C(=O)Cc2cc(OC)c(OC)cc2[N+](=O)[O-])cc1
Cytochrome P450 2C9
  AC50: inconclusive
Cytochrome P450 2C19
  AC50: 1.41 µM (inconclusive)

## COc1ccc(CN2C(=O)NC(=O)/C(=C/c3ccc[nH]3)C2=O)cc1
[9]
  EC50: > 99 µM (inactive)
[10]
  EC50: > 99 µM (inactive)

## C=CCn1c(C)cc(C(=O)CN2C(=O)c3ccccc3C2=O)c1C
[11]
  EC50: 18.7 µM (active)
[12]
  EC50: 8.53 µM (active)
Cytochrome P450 2C9
  AC50: inconclusive
[13]
  EC50: 10.1 µM (inconclusive)

## COc1ccc(/C=C/c2cc(=O)c3cc(Cl)ccc3o2)cc1
[9]
  EC50: 38 µM (inactive)
[10]
  EC50: > 99 µM (inactive)

## CCc1c(O)oc2nnc(C)c-2c1C
Cytochrome P450 2C9
  AC50: inconclusive
Cytochrome P450 2C19
  AC50: 11.2 µM (inconclusive)

## COc1ccc(C(=O)NC(=S)NNC(=O)c2ccccc2C)cc1
[14]
  EC50: 1.31 µM (active)
Vero
  CC50: > 25 µM (active)
Streptococcus
  EC50: 2.83 µM (active)
[15]
  EC50: > 150 µM (inconclusive)
[16]
  EC50: 1.69 µM (active)

## COC(=O)c1ccc2c(=O)n(Cc3ccc(C(=O)NCCCN4CCC(C)CC4)cc3)c(=S)[nH]c2c1
Vero
  CC50: 20.9 µM (active)

## COC(=O)[C@H](CCSC)NC(=O)c1cccnc1SC
Cells [7]
  EC50: > 350 µM (not active)
Cells [8]
  EC50: > 350 µM (not active)

## CCOC(=O)COn1c(-c2cccc(Cl)c2)nc2ccc([N+](=O)[O-])cc21
[1]
  CC50: > 20 µM (active)
Protein skinhead-1
  IC50: > 100 µM (inactive)
Cells [3]
  IC50: 28.9 µM (active)

## C=CCSc1cc(C)nc2c(-c3ccccc3)cnn12
Cells [7]
  EC50: 26.8 µM (active)
Cells [8]
  EC50: > 350 µM (not active)

## CCN(CC)c1ccc(NC(=O)c2cccnc2)c(C)c1
Large T antigen
  IC50: 77.3 µM (active)
Cytochrome P450 2C9
  AC50: inconclusive
Cytochrome P450 2C19
  AC50: 39.8 µM (inconclusive)
[17]
  AC50: 0.877 µM (active)

## O=[N+]([O-])c1ccc(NN=Cc2ccc3c(c2)OCO3)nc1
[9]
  EC50: > 99 µM (inactive)
[10]
  EC50: 40.5 µM (inactive)

## CCn1c(/C=N/NC(=O)c2ccc(OC)cc2)nc2ccccc21
[1]
  CC50: 17.9 µM (active)
Cells [3]
  IC50: 15.7 µM (active)
[4]
  CC50: > 20 µM (active)
[5]
  CC50: 24.1 µM (active)
H9c2
  IC50: > 79 µM (inactive)

## COc1cc(N/N=C(\C)c2ccc(O)c(C)c2)nc(-c2ccccc2)n1
Vero
  CC50: > 25 µM (active)
[18]
  AC50: 3.99 µM (active)

## CC(C)c1ccc2[nH]c3c(c2c1)CCC/C3=N\NC(=O)c1ccncc1
[14]
  EC50: 3.54 µM (active)
[1]
  CC50: 11.6 µM (active)
Cells [3]
  IC50: 2 µM (active)
Streptokinase A
  EC50: > 150 µM (not active)
[4]
  CC50: > 20 µM (active)
Streptococcus
  EC50: 16.9 µM (active)
[5]
  CC50: 26 µM (active)
